Reference: patent EP1245247A1, “Biocidal locks” (Biolink Corporation, priority 2001, dated 2002)

How the values were obtained:
[1] = test system: S. epidermis; settings: cited from earlier work
[2] = test system: blood; assay: Clotting of pig blood collected into containers holding taurolidine solution (Example 1); settings: pig blood filled up to the 30 mL level; inspected after 30 minutes
Method: A 0.5% solution of taurolidine in Ringer-lactate solution (Thomae, Biberach, Germany) was introduced into each of four polyethylene bottles having a 30 mL volume. Filling volumes were 5, 10, and 15 mL. One bottle was filled with 5 mL of the taurolidine solution and 2 mL ACD-A (Fresenius, Bad Homburg, Germany) solution. ACD-A solution is used for the conservation of whole blood and contains per liter: 22.0 grams of sodium citrate dihydrate, 7.3 grams of citric acid and 34.5 grams of glucose monohydrate.
Blood was collected at a slaughter house from a female pig directly from the slaughter wound into the containers that were then filled up to the 30 mL level. The containers were capped and gently moved to mix blood with the solution. The containers were inspected after 30 minutes. Blood in the containers containing only taurolidine was clotted, but the blood in the container containing the mixture of taurolidine and ACD-A was not clotted.

[3] = mice; cited from earlier work
[4] = mouse, in vivo; cited from earlier work
[5] = test system: E. coli; settings: intravenous 0.2 mL of a 20% solution in sterile 5% polyvinyl pyrrolidone; intraperitoneal E. coli; cited from earlier work
[6] = test system: Vancomycin-Intermediate Susceptibility Staphylococcus Aureus (VISA) and Methicillin-Resistant Staphylococcus Aureus (MRSA); settings: range pH 7.0 to pH 5.0; cited from earlier work
[7] = test system: B. fragilis; settings: intravenous 0.2 mL of a 20% solution in sterile 5% polyvinyl pyrrolidone; intraperitoneal B. fragilis; cited from earlier work

Compound: CN[C@H](CC(C)C)C(=O)N[C@H]1C(=O)N[C@@H](CC(N)=O)C(=O)N[C@H]2C(=O)N[C@H]3C(=O)N[C@H](C(=O)N[C@H](C(=O)O)c4cc(O)cc(O)c4-c4cc3ccc4O)[C@H](O)c3ccc(c(Cl)c3)Oc3cc2cc(c3O[C@@H]2O[C@H](CO)[C@@H](O)[C@H](O)[C@H]2O[C@H]2C[C@](C)(N)[C@H](O)[C@H](C)O2)Oc2ccc(cc2Cl)[C@H]1O [Vancomycin]
- bactericidal dose ([1]; initial inocula of 10^3 CFU/mL): 6.7 µg/mL

Compound: O=C([O-])CN(CCN(CC(=O)[O-])CC(=O)O)CC(=O)O.[Na+].[Na+] [disodium EDTA]
- bactericidal concentration ([1]; initial inoculum of 10^3 CFU of staphylococci per mL, in 24 hours): 20 mg/mL

Compound: O=S1(=O)CCN(CN2CCS(=O)(=O)NC2)CN1 [taurolidine, bis-(1,1-dioxo-perhydroxy-1,2,4-thiadiazin-4-yl)methane]
- Blood clotting in the containers [2]: clotted
- intraperitoneal LD50 [3]: ~1500 mg/kg
- teratogenicity [4]: non-teratogenic
- mortality rate [5]: very significantly reduce the mortality rate
- dependence of activity on pH [6]: activity increases with decreasing pH
- mortality rate [7]: very significantly reduce the mortality rate
